Assay results reported in patent US9593305B2, “Differentiation of pluripotent stem cells” (Janssen Biotech, Inc., priority 2008, dated 2017).

Experiments:
[1] = test system: H1 human embryonic stem cells; test: Single-cell monolayer assay with EGF/FGF4, serum free, no activin A (Example 10, Table 10); format: cell-based; conditions: No AA (without Wnt3a); FGF(100 ng/ml); EGF(100 ng/ml)
[2] = test system: H1 human embryonic stem cells; test: Bioassay validation: activin A titration with or without Wnt3a, cell number and SOX17 intensity (Example 2); format: cell-based; conditions: with 20 ng/ml Wnt3a days 1-2, four-day assay
Text: Activin A is an important mediator of differentiation in a broad range of cell types, including differentiation of embryonic stem cells to definitive endoderm. […] A bioassay that measures this differentiation in human embryonic stem cells was adapted in miniaturized format to 96-well plates for screening purposes. Validation was completed using treatment with commercial sources of activin A and Wnt3a recombinant proteins and measuring protein expression of the transcription factor SOX17, considered to be a representative marker of definitive endoderm.
Briefly, clusters of H1 human embryonic stem cells were grown on reduced growth factor […]™ (Invitrogen; Cat #356231)-coated tissue culture plastic. Cells were passaged using collagenase (Invitrogen; Cat #17104-019) treatment and gentle scraping, washed to remove residual enzyme, and plated in a ratio of 1:1 (surface area) on reduced growth factor […]™-coated 96-well black plates (Packard ViewPlates; Perkin Elmer; Cat #6005182). […]
Imaging was performed using an IN Cell Analyzer 1000 (GE Healthcare) utilizing the 51008bs dichroic for cells stained with Hoechst 33342 and Alexa Fluor 488. […] Segmentation for the nuclei was determined based on gray-scale levels (baseline range 100-300) and nuclear size. […]

Row | Compound | Sox17 Expression, Average Total Intensity [1] | EC50 for induction of SOX17 expression [2] [µg/mL] | Optimal activin A effects for induction of SOX17 expression (concentration range) [2] [ng/mL]
1 | O=C1CCN2CCN(CC2)Cc2cc(Cl)cc(c2)Nc2ncnc(n2)-c2cncc(c2)CCCN1 [Compound 34, 5-Chloro-1,8,10,12,16,22,26,32-octaazapentacyclo[24.2.2.1˜3.7˜0.1˜9,13˜0.1˜14.18˜]tritriaconta-3(33), 4,6,9(32), 10,12,14(31), 15,17-nonaen-23-one] | 1.13E+08 |  | 
2 | Activin A: recombinant human activin A (PeproTech), TGF-beta family member |  | 0.03 to 0.05 | 100 to 200
